Experiment [1] relates to MCF-7 cells (breast adenocarcinoma). Kind of experiment: Sulforhodamine B (SRB) antiproliferative assay, MCF-7. The class given is cell-based. Particulars: Homo sapiens, MCF7, MCF-7, 48 h, mean ± SEM of four to six independent experiments. The protocol:
(§1) The antiproliferative properties of andrographolide and all prepared derivatives (2–26) were evaluated against a panel of different cancer cell lines, including human pancreatic ductal adenocarcinoma (PANC-1), colorectal adenocarcinoma (HCT116), melanoma (A375), breast adenocarcinoma (MCF-7) and a non-tumorigenic colon (CCD-18Co) cell line using the sulforhodamine B assay.
(§2) Human breast adenocarcinoma MCF-7, pancreatic ductal adenocarcinoma PANC-1, melanoma A375, and non-tumorigenic colon CCD-18Co cell lines were purchased from ATCC (Rockville, MD, USA). Human colorectal adenocarcinoma HCT116 cells were kindly provided by B. Vogelstein (The Johns Hopkins Kimmel Cancer Center, Baltimore, MD, USA). Tumor cells were routinely cultured in RPMI-1640 medium with UltraGlutamine from Biowest (VWR, Carnaxide, Portugal) supplemented with 10% fetal bovine serum (FBS) from Biowest (VWR, Carnaxide, Portugal), except for the PANC-1 cells, which were grown in DMEM (4.5 g/L glucose) with stable L-glutamine and sodium pyruvate and supplemented with 10% FBS. The non-tumorigenic CCD-18Co cells were cultured in EMEM (Lonza, VWR, Carnaxide, Portugal), supplemented with 10% FBS. All cells were incubated at 37 °C in a humidified atmosphere of 5% CO2. Routine mycoplasma testing was performed using the MycoAlert™ PLUS mycoplasma detection kit (Lonza).
(§3) For the evaluation of the compound effect on cell proliferation, human cell lines were seeded in 96-well plates at a density of 5.0 × 10^3 (HCT116, MCF-7, PANC-1, A375, and CCD-18Co) cells per well, for 24 h. Cells were then treated with serial dilutions of the compound (ranging from 0.63 to 30 µM), for an additional 48 h incubation period. The growth inhibitory effects were assessed by SRB assay, as described in [58], and the half-maximal inhibitory concentration (IC50 values) were determined for each cell line using the GraphPad Prism software version 7.0 (La Jolla, CA, USA). Culture medium containing a maximum of 0.05% dimethyl sulfoxide (DMSO) was used as negative control.
Background: Sulforhodamine B stains cellular protein and so reports cell mass.

Experiment [2] concerns PANC-1 cells. Kind of experiment: Cell cycle analysis by flow cytometry (propidium iodide). Particulars: PANC-1, 3 μM and 6 μM, 48 h. The class given is cell-based, human. The protocol: (§4) To elucidate the antiproliferative activity of compound 12, cell cycle analysis was performed in the PANC-1 cancer cell line. The cell cycle is a highly controlled process where cellular DNA is replicated and then equally partitioned in two daughter cells. The cell cycle is composed of two distinct phases: the interphase, where the cell grows and undergoes three distinct periods—the G1 (pre-DNA synthesis), S (DNA synthesis), and G2 (pre-division) phases—and mitosis, where cell undergoes division. The newly formed daughter cells then enter the preparatory phases of interphase, and start the G0 phase (quiescence). […] Thus, PANC-1 cells were treated with compound 12 at 3 and 6 µM for 48 h and then analyzed by flow cytometry (Figure 1B,C).
The analyses were performed as described in the literature. In particular, 1.5 × 10^5 PANC-1 cells/well were seeded in 6-well plates and allowed to adhere overnight, followed by treatment with 3 µM and 6 µM of compound 12 for 48 h. For cell cycle analysis, cells were stained with propidium iodide (Sigma-Aldrich) and subjected to flow cytometry. Cell cycle phases were identified and quantified using the FlowJo X 10.0.7 software (Treestar, Ashland, OR, USA). For apoptosis analysis, cells were stained using the Annexin V-FITC Apoptosis Detection Kit I from BD Biosciences (Enzifarma, Porto, Portugal), according to the manufacturer’s instructions. […]
For orientation: A flow cytometer gives signals particle by particle.

The test system of experiment [3] is PANC-1 cells (pancreatic ductal adenocarcinoma). Kind of experiment: Sulforhodamine B (SRB) antiproliferative assay, PANC-1. The class given is cell-based, human. On the procedure: as §1, §2, §3
Experiment [4] deals with HCT116 cells (colorectal adenocarcinoma). Kind of experiment: Sulforhodamine B (SRB) antiproliferative assay, HCT116. The class given is cell-based. Particulars: Homo sapiens, HCT-116, HCT116, 48 h, mean ± SEM of four to six independent experiments. The protocol: as §1, §2, §3
Another experiment relates to p21. Kind of experiment: Western blot, p21. The note with it: PANC-1, 3 and 6 μM, 48 h. The class given is cell-based, human. The protocol:
as §4
PANC-1 (1.5 × 10^5 cells/well) were seeded in six-well plates, allowed to adhere overnight, and treated with 3 µM and 6 µM of compound 12 for 48 h. Protein lysates were obtained in RIPA buffer with protease inhibitors (Sigma-Aldrich, Lisbon, Portugal) and quantified using Pierce® bicinchoninic acid (BCA) protein assay reagents (Thermo Fisher Scientific, Porto Salvo, Portugal). […] The signal was detected with enhanced chemiluminescence (ECL) (Amersham, GE Healthcare Life Sciences, Enzymatic, Portugal) using the ChemiDoc^TM MP Imaging system (BioRad Laboratories, Amadora, Portugal).

In experiment [5] the test system is PANC-1 cells. Kind of experiment: Annexin V-FITC/PI double-staining apoptosis assay. The class given is cell-based, human. Particulars: 48 h. An excerpt:
To further investigate the mechanism of action of the triazole derivative 12, an apoptosis analysis was subsequently performed in PANC-1 cells. The early stages of apoptosis are characterized by the disruption of membrane asymmetry and the translocation of phosphatidylserine from the inner to the outer leaflet of the plasma membrane, which can be detected using Annexin V-FITC, a protein with high affinity for phosphatidylserine. In the later stages of apoptosis, the cell membrane loses its integrity, allowing propidium iodide (PI) to penetrate into the cell. Thus, PANC-1 cells treated with compound 12 at 3 and 6 μM for 48 h were analyzed by flow cytometry after Annexin V-FITC and PI staining (Figure 1B, bottom panel; and Figure 1D). This analysis can distinguish and quantify viable cells (annexin V−, PI−), early apoptotic cells (annexin V+, PI−), late apoptotic cells (annexin V+, PI+), and necrotic cells (annexin V−/PI+). […] Cleavage of PARP-1 into an 89 kDa protein, cleaved PARP-1, occurs during programmed cell death (apoptosis) as a result of proteolytic processing by active caspase-3. Thus, cleaved PARP-1 is recognized as a marker of apoptosis.
The analyses were performed as described in the literature. In particular, 1.5 × 10^5 PANC-1 cells/well were seeded in 6-well plates and allowed to adhere overnight, followed by treatment with 3 µM and 6 µM of compound 12 for 48 h. For cell cycle analysis, cells were stained with propidium iodide (Sigma-Aldrich) and subjected to flow cytometry. Cell cycle phases were identified and quantified using the FlowJo X 10.0.7 software (Treestar, Ashland, OR, USA). For apoptosis analysis, cells were stained using the Annexin V-FITC Apoptosis Detection Kit I from BD Biosciences (Enzifarma, Porto, Portugal), according to the manufacturer’s instructions. The Accuri^TM C6 flow cytometer and the BD Accuri C6 software (BD Biosciences, Heidelberg, Germany) were used.

This is an account of results in paper PMC12114840, “Exploring the Anticancer Properties of 1,2,3-Triazole-Substituted Andrographolide Derivatives” (Pharmaceuticals, 2025).

By IC50 is commonly meant the concentration at which inhibition is half-maximal. A low value points to greater potency in that assay. One may read the IC10 as the concentration at which the effect reaches the 10% level. The low end stands for an effect from little substance, the high end for a need for much substance.

SMILES strings stand for the structures.

On to `C=C1CC[C@@H]2[C@](C)(COC(C)=O)[C@H](OC(C)=O)CC[C@@]2(C)[C@@H]1C[C@H](C1=CCOC1=O)n1cc(-c2ccc(Br)cc2)nn1` [Compound 12, (12R)-4-bromophenyl-1,2,3-triazole-3,19-diacetoxy-14-deoxy-andrographolide], for which the IC50 is 6.8 ± 0.3 µM in experiment [1]; 3.4 ± 0.9 µM in experiment [3] (Homo sapiens, PANC-1, 48 h, SRB, mean ± SEM of four to six independent experiments); 1.7 ± 0.2 µM in experiment [4]. Further, the “G2/M population compared to the control” value in the experiment on PANC-1 cells [2] is “significant increase in the G2/M population”. The compound further came in with an IC10 in experiment [3] (PANC-1, concentration which has no significant effect on cell proliferation) of 1.35 µM. In addition, the “expression of p21” value in the experiment on p21 is listed as “increased the expression of p21 in a dose-dependent manner”. For the same compound, in the experiment on PANC-1 cells [5] (Homo sapiens, PANC-1, 3 µM, read-out: viable cells (annexin-V−, PI−; Q4)), the viability at 3 µM stood at 79.7%. Moreover, the viability at 6 µM in the experiment on PANC-1 cells [5] (Homo sapiens, PANC-1, 6 µM, read-out: viable cells (annexin-V−, PI−; Q4)) amounted to 68.4%. Also, the “early apoptotic cells (annexin V+, PI−; Q3)” value stood at 7.08% in the experiment with PANC-1 cells [5] (PANC-1, 3 µM) and 13.3% with PANC-1 cells [5] (PANC-1, 6 µM). For the same compound, the “late apoptotic cells (annexin V+, PI+; Q2)” value worked out at 10.2% in the experiment with PANC-1 cells [5] (PANC-1, 3 µM) and 13.5% in the experiment with PANC-1 cells [5] (PANC-1, 6 µM). Besides, the “percentage of apoptotic cells (Annexin V+)” value worked out at 17.28% in the experiment on PANC-1 cells [5] (PANC-1, 3 µM) and 26.8% in the experiment on PANC-1 cells [5] (PANC-1, 6 µM).
